Common to all, as to format: biochemical
One experiment deals with T1, Hck-1 (Homo sapiens, UniProt P08631).
T1 construct: Kinases are expressed as either kinase domains or full length constructs; made in house
Briefly: Kinase inhibition assay (33P transfer), Hck. The note with it: Table 6, Hck-1 kinase inhibition class.

In a further experiment the target is T2, Itk (Homo sapiens, UniProt Q08881).
T2 construct: Kinases are expressed as either kinase domains or full length constructs; made in house
T2 sequence (Q08881 1-620): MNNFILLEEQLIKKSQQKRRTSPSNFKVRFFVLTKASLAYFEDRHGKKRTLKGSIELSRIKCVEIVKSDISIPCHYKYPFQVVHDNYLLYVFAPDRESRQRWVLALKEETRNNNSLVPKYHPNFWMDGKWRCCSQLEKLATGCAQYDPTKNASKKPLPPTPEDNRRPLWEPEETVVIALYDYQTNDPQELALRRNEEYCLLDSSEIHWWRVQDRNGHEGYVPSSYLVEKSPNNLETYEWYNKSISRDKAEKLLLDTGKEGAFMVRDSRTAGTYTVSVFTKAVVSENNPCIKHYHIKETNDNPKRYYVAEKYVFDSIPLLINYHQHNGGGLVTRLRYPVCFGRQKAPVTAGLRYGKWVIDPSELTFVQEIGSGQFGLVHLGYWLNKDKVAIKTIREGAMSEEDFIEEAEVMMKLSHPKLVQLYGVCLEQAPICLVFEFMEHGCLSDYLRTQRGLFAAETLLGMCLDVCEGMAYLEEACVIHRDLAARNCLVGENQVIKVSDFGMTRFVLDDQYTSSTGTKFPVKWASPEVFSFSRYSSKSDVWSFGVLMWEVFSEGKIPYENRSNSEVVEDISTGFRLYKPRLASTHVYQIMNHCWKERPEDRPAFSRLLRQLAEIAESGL
Briefly: Kinase inhibition assay (33P transfer), Itk. The note with it: read-out: Itk-1. The method, boiled down: (§1)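 Each enzyme, purified to near homogeneity by affinity chromatography, was incubated with ATP carrying 33P and a substrate polymer fixed to the plate. Unbound label was removed with dilute phosphoric acid (0.5%) before adding scintillant and counting. Potency is given as the compound level cutting label uptake by 50%.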

In the next experiment the target is T3, ErbB4 (Homo sapiens, UniProt Q15303).
T3 construct: Kinases are expressed as either kinase domains or full length constructs; made in house
T3 sequence (Q15303 26-1308, species assumed): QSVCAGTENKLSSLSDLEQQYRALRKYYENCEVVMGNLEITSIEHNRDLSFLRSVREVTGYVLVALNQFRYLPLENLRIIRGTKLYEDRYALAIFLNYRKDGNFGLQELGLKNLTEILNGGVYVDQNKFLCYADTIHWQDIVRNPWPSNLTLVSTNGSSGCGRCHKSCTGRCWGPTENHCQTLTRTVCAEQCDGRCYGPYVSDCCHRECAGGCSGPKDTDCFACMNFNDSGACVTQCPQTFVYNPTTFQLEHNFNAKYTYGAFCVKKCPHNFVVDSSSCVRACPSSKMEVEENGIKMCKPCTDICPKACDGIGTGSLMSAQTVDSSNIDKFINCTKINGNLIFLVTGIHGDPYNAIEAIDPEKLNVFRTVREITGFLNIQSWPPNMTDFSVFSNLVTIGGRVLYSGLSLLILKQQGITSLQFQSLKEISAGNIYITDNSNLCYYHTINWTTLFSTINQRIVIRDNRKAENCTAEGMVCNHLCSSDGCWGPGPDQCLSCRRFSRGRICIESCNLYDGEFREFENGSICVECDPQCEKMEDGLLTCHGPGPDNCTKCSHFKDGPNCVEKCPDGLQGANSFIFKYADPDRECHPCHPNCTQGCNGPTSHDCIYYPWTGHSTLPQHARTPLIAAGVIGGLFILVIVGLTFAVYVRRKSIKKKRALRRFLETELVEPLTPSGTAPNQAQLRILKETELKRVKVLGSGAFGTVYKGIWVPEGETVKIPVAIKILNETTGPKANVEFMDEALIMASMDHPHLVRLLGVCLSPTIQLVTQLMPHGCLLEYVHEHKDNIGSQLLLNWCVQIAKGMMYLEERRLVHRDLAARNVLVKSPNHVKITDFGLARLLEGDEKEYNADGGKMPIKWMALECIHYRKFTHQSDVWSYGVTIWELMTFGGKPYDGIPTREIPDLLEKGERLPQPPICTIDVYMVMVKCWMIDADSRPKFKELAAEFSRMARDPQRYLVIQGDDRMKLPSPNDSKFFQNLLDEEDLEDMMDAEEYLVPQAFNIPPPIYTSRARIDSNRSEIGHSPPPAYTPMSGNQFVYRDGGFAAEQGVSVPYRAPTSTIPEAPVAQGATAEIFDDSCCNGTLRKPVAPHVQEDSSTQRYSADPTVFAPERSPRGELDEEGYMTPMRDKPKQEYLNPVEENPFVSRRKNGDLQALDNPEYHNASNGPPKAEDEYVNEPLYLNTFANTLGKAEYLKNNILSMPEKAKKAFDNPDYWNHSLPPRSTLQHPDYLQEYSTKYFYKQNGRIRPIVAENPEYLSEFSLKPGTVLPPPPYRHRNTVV
Briefly: Kinase inhibition assay (33P transfer), ErbB4. To be noted: read-out: ErbB4-1.

A further experiment has as its target T4, FGFR1 (Homo sapiens, UniProt P11362).
T4 construct: Kinases are expressed as either kinase domains or full length constructs; made in house
Briefly: Kinase inhibition assay (33P transfer), FGFR1. The note with it: read-out: FGFR1-1.

The next experiment has as its target T5, IGFR-1 (Homo sapiens, UniProt P08069).
T5 construct: Kinases are expressed as either kinase domains or full length constructs; made in house
Put plainly: Kinase inhibition assay, IGFR-1 (Table 2). To be noted: Table 2, kinase inhibition class.

Another experiment addresses T6, ErbB2 (Homo sapiens, UniProt P04626).
T6 construct: Kinases are expressed as either kinase domains or full length constructs; made in house
Briefly: Kinase inhibition assay (33P transfer), ErbB2. To be noted: read-out: ErbB2-2. Put shortly: as §1

A further experiment addresses T7, Kdr (Homo sapiens, UniProt P35968).
T7 construct: Kinases are expressed as either kinase domains or full length constructs; made in house
Briefly: Kinase inhibition assay (33P transfer), Kdr. The note with it: read-out: KDR-1. The method, boiled down: (§2)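 Recombinant kinase-domain or full-length fusion proteins (GST or His tag) served as enzyme. Substrate poly(Glu,Tyr) 4:1 or poly(Arg,Ser) 3:1 was bound to the plate; transferred 33P was read by liquid scintillation following acid washing.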

The next experiment has as its target T8, Zap-70 (Homo sapiens, UniProt P43403).
T8 construct: Kinases are expressed as either kinase domains or full length constructs; made in house
T8 sequence (P43403 1-619): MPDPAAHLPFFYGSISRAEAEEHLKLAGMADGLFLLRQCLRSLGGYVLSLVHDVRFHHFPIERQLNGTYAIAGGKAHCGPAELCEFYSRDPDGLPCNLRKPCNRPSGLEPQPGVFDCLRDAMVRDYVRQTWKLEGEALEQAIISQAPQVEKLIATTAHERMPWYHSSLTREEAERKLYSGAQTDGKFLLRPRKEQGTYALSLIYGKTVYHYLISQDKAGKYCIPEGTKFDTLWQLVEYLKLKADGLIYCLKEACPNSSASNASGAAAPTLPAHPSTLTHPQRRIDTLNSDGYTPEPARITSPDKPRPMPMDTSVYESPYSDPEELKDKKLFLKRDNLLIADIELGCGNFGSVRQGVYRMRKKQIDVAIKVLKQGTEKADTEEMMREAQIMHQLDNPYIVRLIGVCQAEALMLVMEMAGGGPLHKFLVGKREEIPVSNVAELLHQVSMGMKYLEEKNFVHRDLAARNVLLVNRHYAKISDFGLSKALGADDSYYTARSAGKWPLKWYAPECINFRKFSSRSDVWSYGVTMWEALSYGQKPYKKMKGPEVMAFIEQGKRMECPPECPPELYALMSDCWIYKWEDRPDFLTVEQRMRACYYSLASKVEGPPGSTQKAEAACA
Put plainly: Kinase inhibition assay (33P transfer), Zap-70. The note with it: read-out: Zap-1. Put shortly: as §2

Another experiment addresses T9, Fyn (Homo sapiens, UniProt P06241).
T9 construct: Kinases are expressed as either kinase domains or full length constructs; made in house
Put plainly: Kinase inhibition assay (33P transfer), Fyn. The note with it: read-out: Fyn-1. Put shortly: as §1

The next experiment addresses T10, AKT (Homo sapiens, UniProt Q9Y243).
T10 construct: Kinases are expressed as either kinase domains or full length constructs; made in house
Briefly: Kinase inhibition assay (33P transfer), AKT. To be noted: Table 2, kinase inhibition class; read-out: AKT3-1. The method, boiled down:
as §2

The next experiment deals with T11, Lyn (Homo sapiens, UniProt P07948).
T11 construct: Kinases are expressed as either kinase domains or full length constructs; made in house
Briefly: Kinase inhibition assay (33P transfer), Lyn. To be noted: Table 6, Lyn-1 kinase inhibition class. Put shortly:
as §1

Another experiment deals with T12, Tek (Homo sapiens, UniProt Q02763).
T12 construct: Kinases are expressed as either kinase domains or full length constructs; made in house
Briefly: Kinase inhibition assay (33P transfer), Tek. The note with it: read-out: Tek-1. Put shortly:
as §1

In the next experiment the target is T13, Ret-1 (Homo sapiens, UniProt P07949).
T13 construct: Kinases are expressed as either kinase domains or full length constructs; made in house
Briefly: Kinase inhibition assay (33P transfer), Ret. The note with it: Table 6, Ret-1 kinase inhibition class.

A further experiment concerns the target T14, EGFR (Homo sapiens, UniProt P00533).
T14 construct: Kinases are expressed as either kinase domains or full length constructs; made in house
Briefly: Kinase inhibition assay (33P transfer), EGFR. To be noted: Table 2, kinase inhibition class; read-out: EGFR-1. Put shortly:
as §1

A further experiment concerns the target T15, PDGFRB (Homo sapiens, UniProt P09619).
T15 construct: Kinases are expressed as either kinase domains or full length constructs; made in house
Put plainly: Kinase inhibition assay (33P transfer), PDGFRB. To be noted: read-out: PDGFRB-1.

The next experiment has as its target T16, c-Met (Homo sapiens, UniProt P08581).
T16 construct: Kinases are expressed as either kinase domains or full length constructs; made in house
Put plainly: Kinase inhibition assay (33P transfer), c-Met. To be noted: Table 2, kinase inhibition class; read-out: Met-1. The method, boiled down: as §1

Another experiment concerns the target T17, Src (Homo sapiens, UniProt P12931).
T17 construct: Kinases are expressed as either kinase domains or full length constructs; made in house
Briefly: Kinase inhibition assay (33P transfer), Src. The note with it: Table 6, Src-1 kinase inhibition class. Put shortly:
as §1

A further experiment addresses T18, Lck (Homo sapiens, UniProt P06239).
T18 construct: Kinases are expressed as either kinase domains or full length constructs; made in house
Put plainly: Kinase inhibition assay (33P transfer), Lck. To be noted: read-out: Lck-1. The method, boiled down: as §2

The next experiment has as its target T19, Flt-1 (Homo sapiens, UniProt P17948).
T19 construct: Kinases are expressed as either kinase domains or full length constructs; made in house
Put plainly: Kinase inhibition assay (33P transfer), Flt-1. Put shortly:
as §1

A value given as a limit tells only on which side of the number the result lay.

T1 sequence (P08631 whole entry, the tested form may be a part): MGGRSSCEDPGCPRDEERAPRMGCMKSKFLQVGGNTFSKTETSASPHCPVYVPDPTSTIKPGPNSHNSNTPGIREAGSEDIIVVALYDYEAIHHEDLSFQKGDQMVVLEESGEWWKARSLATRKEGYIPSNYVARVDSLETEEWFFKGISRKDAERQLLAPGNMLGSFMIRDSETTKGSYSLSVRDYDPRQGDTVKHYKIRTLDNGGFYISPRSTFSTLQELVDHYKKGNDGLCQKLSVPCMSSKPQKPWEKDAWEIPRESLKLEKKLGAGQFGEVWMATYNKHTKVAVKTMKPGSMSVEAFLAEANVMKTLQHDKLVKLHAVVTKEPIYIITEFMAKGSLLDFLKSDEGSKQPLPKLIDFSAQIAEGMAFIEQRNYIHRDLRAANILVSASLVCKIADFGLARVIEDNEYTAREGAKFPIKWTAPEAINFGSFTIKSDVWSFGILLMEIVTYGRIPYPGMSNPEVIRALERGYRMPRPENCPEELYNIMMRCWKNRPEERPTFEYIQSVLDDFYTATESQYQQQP
T15 sequence (P09619 33-1106, species assumed): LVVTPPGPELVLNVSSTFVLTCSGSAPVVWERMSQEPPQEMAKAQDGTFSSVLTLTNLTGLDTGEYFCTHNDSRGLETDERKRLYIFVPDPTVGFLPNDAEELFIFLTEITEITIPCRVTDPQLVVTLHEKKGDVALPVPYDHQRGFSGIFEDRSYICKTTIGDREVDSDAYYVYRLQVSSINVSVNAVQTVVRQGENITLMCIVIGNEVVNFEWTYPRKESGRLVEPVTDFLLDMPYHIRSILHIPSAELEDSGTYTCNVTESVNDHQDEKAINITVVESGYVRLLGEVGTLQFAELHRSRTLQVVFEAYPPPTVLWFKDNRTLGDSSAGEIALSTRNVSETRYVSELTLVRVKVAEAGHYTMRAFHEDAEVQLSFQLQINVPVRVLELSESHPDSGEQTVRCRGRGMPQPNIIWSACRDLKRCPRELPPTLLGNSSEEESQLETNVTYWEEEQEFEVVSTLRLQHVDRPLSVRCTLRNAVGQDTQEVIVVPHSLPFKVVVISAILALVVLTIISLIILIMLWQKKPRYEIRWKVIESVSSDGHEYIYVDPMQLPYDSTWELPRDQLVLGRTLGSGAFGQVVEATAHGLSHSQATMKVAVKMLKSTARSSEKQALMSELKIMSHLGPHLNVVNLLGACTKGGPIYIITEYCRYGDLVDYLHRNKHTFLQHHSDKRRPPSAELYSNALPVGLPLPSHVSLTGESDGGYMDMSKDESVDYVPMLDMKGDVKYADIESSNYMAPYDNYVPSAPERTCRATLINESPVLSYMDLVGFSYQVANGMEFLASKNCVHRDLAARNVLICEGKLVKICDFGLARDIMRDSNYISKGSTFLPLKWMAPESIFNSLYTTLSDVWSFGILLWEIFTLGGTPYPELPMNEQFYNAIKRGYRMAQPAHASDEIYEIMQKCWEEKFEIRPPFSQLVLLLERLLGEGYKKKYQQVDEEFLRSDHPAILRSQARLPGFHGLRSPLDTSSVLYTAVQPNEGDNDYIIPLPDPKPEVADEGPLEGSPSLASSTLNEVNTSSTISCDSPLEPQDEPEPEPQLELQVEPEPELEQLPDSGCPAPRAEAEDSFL
T4 sequence (P11362 22-822, species assumed): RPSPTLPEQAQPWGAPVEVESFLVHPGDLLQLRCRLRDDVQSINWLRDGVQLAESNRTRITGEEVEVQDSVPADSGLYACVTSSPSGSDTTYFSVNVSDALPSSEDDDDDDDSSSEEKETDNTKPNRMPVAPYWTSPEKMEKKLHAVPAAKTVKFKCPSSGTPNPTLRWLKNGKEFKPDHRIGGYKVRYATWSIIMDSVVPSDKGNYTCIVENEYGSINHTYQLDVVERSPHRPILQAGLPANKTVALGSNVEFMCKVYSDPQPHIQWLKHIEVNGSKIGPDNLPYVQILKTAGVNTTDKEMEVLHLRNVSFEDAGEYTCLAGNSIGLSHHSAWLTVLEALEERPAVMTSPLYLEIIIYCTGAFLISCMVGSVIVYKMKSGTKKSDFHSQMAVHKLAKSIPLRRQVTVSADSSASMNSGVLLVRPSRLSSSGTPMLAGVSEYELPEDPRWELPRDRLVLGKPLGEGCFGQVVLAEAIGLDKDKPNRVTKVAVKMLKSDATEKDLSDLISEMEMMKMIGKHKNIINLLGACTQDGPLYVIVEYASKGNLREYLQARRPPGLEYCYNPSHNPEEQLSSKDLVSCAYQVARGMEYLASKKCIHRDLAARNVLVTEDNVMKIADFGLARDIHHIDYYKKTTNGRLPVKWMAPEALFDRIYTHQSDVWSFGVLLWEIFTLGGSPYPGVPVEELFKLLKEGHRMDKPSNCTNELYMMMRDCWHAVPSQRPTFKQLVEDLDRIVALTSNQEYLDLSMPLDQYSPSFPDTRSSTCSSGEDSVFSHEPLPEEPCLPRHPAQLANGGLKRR
T7 sequence (P35968 20-1356, species assumed): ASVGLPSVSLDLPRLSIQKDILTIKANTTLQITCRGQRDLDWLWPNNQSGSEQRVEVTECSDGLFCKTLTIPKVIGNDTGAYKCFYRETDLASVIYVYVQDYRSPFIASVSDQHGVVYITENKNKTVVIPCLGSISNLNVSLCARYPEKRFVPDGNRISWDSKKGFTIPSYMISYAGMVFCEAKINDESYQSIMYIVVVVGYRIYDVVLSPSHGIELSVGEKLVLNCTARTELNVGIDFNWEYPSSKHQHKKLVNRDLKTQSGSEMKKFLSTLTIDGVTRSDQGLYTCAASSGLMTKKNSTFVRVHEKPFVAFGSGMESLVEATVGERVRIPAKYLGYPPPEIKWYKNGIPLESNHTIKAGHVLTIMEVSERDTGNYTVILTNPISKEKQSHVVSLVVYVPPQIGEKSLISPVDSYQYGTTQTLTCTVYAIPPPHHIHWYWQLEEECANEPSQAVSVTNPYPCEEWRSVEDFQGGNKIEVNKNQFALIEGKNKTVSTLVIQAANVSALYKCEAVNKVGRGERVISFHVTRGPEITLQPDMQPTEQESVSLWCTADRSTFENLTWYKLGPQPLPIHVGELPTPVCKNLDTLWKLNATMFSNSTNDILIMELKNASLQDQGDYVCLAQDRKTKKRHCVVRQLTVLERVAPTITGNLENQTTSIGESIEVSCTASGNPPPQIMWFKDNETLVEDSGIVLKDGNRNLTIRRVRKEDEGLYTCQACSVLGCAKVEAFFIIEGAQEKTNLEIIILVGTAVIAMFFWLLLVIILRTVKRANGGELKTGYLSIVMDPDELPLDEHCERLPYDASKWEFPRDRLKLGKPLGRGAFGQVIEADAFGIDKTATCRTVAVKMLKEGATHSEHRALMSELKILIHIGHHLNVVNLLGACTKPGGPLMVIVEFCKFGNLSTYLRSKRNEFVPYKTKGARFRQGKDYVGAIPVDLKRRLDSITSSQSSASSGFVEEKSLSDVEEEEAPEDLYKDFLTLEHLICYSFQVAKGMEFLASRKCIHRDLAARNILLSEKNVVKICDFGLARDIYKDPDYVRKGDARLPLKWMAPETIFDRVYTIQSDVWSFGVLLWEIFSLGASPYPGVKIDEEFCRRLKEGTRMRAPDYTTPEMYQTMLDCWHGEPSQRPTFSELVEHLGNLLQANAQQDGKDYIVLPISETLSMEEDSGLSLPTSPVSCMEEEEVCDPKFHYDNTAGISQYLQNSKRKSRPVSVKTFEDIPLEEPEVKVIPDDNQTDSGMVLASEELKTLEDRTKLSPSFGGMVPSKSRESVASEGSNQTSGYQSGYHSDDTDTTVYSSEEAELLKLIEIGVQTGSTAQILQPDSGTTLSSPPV

Regarding `C=CCNc1ncccc1-c1ncnc(Nc2cc(OC)c(OC)c(OC)c2)n1` [Compound 1076], the IC50 against Hck-1 was > 11.4 µM; on Itk, > 11.4 µM; on ErbB4, > 11.4 µM; at FGFR1, 1.01 to 6.08 µM; on IGFR-1 it was > 11.4 µM; at ErbB2 it was > 11.4 µM. The IC50 at Kdr is < 1.01 µM; on Zap-70, > 11.4 µM; at Fyn, 1.01 to 6.08 µM; on AKT it was > 11.4 µM; against Lyn it was > 11.4 µM; at Tek, > 11.4 µM. Moreover, the IC50 was < 1.01 µM at Ret-1; > 11.4 µM on EGFR; < 1.01 µM at PDGFRB; > 11.4 µM at c-Met; 1.01 to 6.08 µM at Src; < 1.01 µM at Lck. Moreover, the IC50 against Flt-1 lay in the range of 1.01 to 6.08 µM.

Regarding `COc1cc(Nc2ncnc(-c3c(O)[nH]c4ccc(Cl)cc34)n2)cc(OC)c1OC` [Compound 517], the IC50 was > 10.5 µM on Hck-1; 8.18 to 10.5 µM at Itk; > 10.5 µM on ErbB4; 0.935 to 5.61 µM on FGFR1; 0.935 to 5.61 µM at IGFR-1; 5.61 to 8.18 µM on ErbB2. Besides, the IC50 on Kdr was < 0.935 µM; at Zap-70, > 10.5 µM; on Fyn, 5.61 to 8.18 µM; on AKT, > 10.5 µM; on Lyn, 8.18 to 10.5 µM; on Tek, 5.61 to 8.18 µM. Also, the IC50 at Ret-1 was 5.61 to 8.18 µM; at EGFR, 5.61 to 8.18 µM; at PDGFRB, 0.935 to 5.61 µM; at c-Met, 8.18 to 10.5 µM; at Src it was > 10.5 µM; on Lck it was 0.935 to 5.61 µM. The IC50 against Flt-1 is < 0.935 µM.

As to `CCN(CC)CCOc1ccc(Nc2ncnc(Nc3cc(OC)c(OC)c(OC)c3)n2)cc1OC` [Compound 602], the IC50 at Hck-1 was > 9.03 µM; on Itk it was > 9.03 µM; on ErbB4, 0.802 to 4.81 µM; on FGFR1, > 9.03 µM; against IGFR-1, > 9.03 µM; at ErbB2, 0.802 to 4.81 µM. Further, the IC50 at Kdr was 7.02 to 9.03 µM; at Zap-70 it was > 9.03 µM; on Fyn it was 0.802 to 4.81 µM; at AKT it was > 9.03 µM; against Lyn, 0.802 to 4.81 µM; against Ret-1 it was > 9.03 µM. Moreover, the IC50 is 0.802 to 4.81 µM on EGFR; 0.802 to 4.81 µM on PDGFRB; > 9.03 µM at c-Met; 0.802 to 4.81 µM against Src; 0.802 to 4.81 µM at Lck; > 9.03 µM against Flt-1.

On to `COc1cc(Nc2ncnc(-n3c(NC(CCO)c4ccccc4)nc4ccccc43)n2)cc(OC)c1OC` (centres unmarked) [Compound 591], for which the IC50 at Hck-1 was 0.758 to 4.55 µM; at Itk, > 8.53 µM; at ErbB4, 6.63 to 8.53 µM; on FGFR1, < 0.758 µM; against IGFR-1, > 8.53 µM; at ErbB2, 4.55 to 6.63 µM. Besides, the IC50 at Kdr was < 0.758 µM; at Zap-70, > 8.53 µM; at Fyn, < 0.758 µM; on AKT it was > 8.53 µM; against Lyn, 0.758 to 4.55 µM; at Ret-1, < 0.758 µM. Also, the IC50 is > 8.53 µM on EGFR; < 0.758 µM on PDGFRB; > 8.53 µM at c-Met; < 0.758 µM against Src; < 0.758 µM at Lck; < 0.758 µM at Flt-1.

With `COc1cc(Nc2ncnc(N(C)c3cccc4ccccc34)n2)cc(OC)c1OC` [Compound 607], the IC50 at Hck-1 is 0.958 to 5.75 µM; at Itk, > 10.8 µM; at ErbB4, 0.958 to 5.75 µM; on FGFR1, 0.958 to 5.75 µM; on IGFR-1, > 10.8 µM; at ErbB2, 0.958 to 5.75 µM. For the same compound, the IC50 was < 0.958 µM on Kdr; > 10.8 µM at Zap-70; 0.958 to 5.75 µM at Fyn; > 10.8 µM on AKT; < 0.958 µM against Lyn; < 0.958 µM against Ret-1. Also, the IC50 at EGFR was < 0.958 µM; on PDGFRB it was 0.958 to 5.75 µM; on c-Met, > 10.8 µM; against Src, 0.958 to 5.75 µM; on Lck it was < 0.958 µM; at Flt-1, 8.38 to 10.8 µM.

These data come from patent publication US7074789B2, “Kinase inhibitors” (Amgen Inc., priority 1999, dated 2006).
